Measurements reported in patent US20070254312A1, “Protein Kinase Inhibitors and Methods for Identiying Same” (priority 2004, published 2007).
Read-outs that look alike come from different tables or passages of the source. Starred links: 1 amine or outer side, 2 acyl side, 3 side chain; linkers in the order of their positions; H or OH if unused. Non-standard residues stand in square brackets, D forms with d. Residues, ends and D or L forms follow the SMILES beside them. *: point of attachment. Benzoyl(4-(pyrrol-1-yl)) = O=C(c1ccc(-n2cccc2)cc1)*; Cysteamide = C(CS[*:3])N[*:1]; Dap = NC[C@H](N)C(=O)O

Legend:
[1] = molecular target: T1, PKCα (Homo sapiens, UniProt P17252); test: Protein Kinase Cα radioactive assay, peptide substrate Ac-Ser-Phe-Arg-Arg-Arg-NH2 (Example 1); format: biochemical; parameters: purchased Pan Vera; details: peptide substrate; read-out: PKCα inhibitory potency IC50
Experimental: Protein Kinase C Assay (general). The peptides […] (for PKC α, β and γ) and acetyl-[…] (for PKC ε and ζ) were used as substrates. […] Total reaction volume was 50 μL. […] Following an additional 5 min incubation at ambient temperature, 75 μL from each reaction well was transferred into each well of a Unifilter (P81 cellulose phosphate paper) assay plate and washed four times with 0.1% phosphoric acid in water. […] IC50 values were calculated using GraFit (Erithacus Software Limited) and Ki values were calculated using Enzyme Kinetics, SigmaPlot (SPSS Inc.) […] An analogous protocol was employed for peptide 4 versus variable [[…]]. […] An analogous protocol was employed for peptide 4 versus variable [ATP]. Protein Kinase Cα Assay (Ki determination for peptide 6 versus variable […] substrate). […] The reaction was initiated as described above. […] Following an additional 5 min incubation at ambient temperature, 75 μL from each reaction well was transferred into each well of a Unifilter (P81 cellulose phosphate paper) assay plate and washed four times with 0.1% phosphoric acid in water. […] IC50 values were calculated using GraFit (Erithacus Software Limited) and Ki values were calculated using Enzyme Kinetics, SigmaPlot (SPSS Inc.)

[2] = molecular target: PKCγ (Homo sapiens, UniProt P05129); parameters: purchased Panvera; details: cited from earlier work
[3] = molecular target: PKCδ (Homo sapiens, UniProt Q05655); parameters: purchased Panvera; details: literature values; relative to most potently inhibited isoform (=1); cited from earlier work
Sequence of PKCδ (Q05655 whole entry, canonical isoform): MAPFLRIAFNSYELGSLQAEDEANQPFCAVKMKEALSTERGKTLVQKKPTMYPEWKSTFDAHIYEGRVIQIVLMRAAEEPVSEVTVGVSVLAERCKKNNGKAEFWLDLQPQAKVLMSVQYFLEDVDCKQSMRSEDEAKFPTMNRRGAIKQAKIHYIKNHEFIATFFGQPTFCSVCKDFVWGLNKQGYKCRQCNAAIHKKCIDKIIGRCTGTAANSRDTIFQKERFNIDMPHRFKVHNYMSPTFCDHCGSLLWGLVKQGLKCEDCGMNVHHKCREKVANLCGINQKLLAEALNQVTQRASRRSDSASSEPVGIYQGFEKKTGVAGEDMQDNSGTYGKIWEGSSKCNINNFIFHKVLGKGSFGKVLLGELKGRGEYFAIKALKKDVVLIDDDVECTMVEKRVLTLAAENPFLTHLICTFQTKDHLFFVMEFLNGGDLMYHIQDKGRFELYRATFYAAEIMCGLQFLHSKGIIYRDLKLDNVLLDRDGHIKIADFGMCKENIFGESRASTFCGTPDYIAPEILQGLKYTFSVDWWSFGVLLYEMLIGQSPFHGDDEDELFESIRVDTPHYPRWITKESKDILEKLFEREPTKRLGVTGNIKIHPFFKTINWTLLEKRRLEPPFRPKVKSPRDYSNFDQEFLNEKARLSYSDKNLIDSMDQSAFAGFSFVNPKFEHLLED

[4] = molecular target: PKCη (Homo sapiens, UniProt P24723); parameters: purchased Panvera; details: cited from earlier work
Sequence of PKCη (P24723 whole entry): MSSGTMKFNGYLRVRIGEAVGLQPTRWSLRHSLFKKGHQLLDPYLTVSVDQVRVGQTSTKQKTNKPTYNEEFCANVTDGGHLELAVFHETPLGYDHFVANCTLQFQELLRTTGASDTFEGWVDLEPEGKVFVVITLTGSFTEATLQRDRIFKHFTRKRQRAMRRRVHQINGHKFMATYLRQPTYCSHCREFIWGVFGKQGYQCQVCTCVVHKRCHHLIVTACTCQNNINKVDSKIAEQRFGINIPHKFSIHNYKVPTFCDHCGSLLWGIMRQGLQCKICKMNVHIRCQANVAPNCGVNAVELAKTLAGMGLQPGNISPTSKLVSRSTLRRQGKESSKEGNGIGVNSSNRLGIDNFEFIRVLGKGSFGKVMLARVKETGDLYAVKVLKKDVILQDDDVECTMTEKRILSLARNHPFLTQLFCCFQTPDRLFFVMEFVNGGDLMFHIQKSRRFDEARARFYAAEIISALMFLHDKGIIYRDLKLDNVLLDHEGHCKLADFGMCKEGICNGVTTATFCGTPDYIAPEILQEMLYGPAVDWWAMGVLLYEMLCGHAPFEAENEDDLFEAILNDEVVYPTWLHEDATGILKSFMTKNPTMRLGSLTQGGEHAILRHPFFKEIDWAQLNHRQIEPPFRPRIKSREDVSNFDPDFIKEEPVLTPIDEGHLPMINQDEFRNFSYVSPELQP

[5] = molecular target: T2, PKCζ (Homo sapiens, UniProt Q05513); parameters: purchased Panvera; details: cited from earlier work
T2 sequence (Q05513 1-592): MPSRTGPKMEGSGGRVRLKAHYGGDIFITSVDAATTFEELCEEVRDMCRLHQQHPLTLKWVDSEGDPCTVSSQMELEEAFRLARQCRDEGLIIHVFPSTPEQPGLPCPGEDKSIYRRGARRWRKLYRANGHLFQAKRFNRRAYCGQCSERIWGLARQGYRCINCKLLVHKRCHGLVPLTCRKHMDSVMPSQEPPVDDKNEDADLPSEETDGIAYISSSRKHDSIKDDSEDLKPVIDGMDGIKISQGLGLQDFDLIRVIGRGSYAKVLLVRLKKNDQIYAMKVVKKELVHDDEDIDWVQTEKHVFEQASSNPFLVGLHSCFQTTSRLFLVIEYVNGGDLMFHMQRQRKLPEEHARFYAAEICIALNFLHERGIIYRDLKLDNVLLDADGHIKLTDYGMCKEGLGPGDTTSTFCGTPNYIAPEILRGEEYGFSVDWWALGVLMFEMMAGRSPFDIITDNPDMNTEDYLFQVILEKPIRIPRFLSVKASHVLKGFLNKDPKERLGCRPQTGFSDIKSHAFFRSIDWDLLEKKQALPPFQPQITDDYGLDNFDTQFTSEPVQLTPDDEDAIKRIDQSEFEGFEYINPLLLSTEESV

[6] = molecular target: PKC β1 (Homo sapiens, UniProt P05771); details: cited from earlier work
Sequence of PKC β1 (P05771 whole entry): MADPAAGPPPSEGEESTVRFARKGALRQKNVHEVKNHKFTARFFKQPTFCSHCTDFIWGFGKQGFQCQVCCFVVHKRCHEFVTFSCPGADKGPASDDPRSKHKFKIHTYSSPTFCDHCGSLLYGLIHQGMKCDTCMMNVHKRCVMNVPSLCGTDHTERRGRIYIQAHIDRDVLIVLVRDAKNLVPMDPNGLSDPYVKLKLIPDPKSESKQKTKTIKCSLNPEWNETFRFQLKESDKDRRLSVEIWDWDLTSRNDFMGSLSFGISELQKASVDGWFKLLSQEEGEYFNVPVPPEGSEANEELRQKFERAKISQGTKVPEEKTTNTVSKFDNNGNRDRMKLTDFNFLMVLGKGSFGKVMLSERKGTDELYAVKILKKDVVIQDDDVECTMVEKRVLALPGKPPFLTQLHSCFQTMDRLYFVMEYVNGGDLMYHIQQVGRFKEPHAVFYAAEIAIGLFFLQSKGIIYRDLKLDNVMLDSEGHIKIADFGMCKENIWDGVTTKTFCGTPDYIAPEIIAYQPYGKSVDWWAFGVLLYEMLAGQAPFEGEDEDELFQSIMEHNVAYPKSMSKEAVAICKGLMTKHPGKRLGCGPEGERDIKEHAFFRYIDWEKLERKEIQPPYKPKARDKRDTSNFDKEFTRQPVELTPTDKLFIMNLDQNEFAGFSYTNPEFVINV

[7] = molecular target: T3, PKCε (Homo sapiens, UniProt Q02156); parameters: purchased Panvera; details: cited from earlier work
T3 sequence (Q02156 1-737): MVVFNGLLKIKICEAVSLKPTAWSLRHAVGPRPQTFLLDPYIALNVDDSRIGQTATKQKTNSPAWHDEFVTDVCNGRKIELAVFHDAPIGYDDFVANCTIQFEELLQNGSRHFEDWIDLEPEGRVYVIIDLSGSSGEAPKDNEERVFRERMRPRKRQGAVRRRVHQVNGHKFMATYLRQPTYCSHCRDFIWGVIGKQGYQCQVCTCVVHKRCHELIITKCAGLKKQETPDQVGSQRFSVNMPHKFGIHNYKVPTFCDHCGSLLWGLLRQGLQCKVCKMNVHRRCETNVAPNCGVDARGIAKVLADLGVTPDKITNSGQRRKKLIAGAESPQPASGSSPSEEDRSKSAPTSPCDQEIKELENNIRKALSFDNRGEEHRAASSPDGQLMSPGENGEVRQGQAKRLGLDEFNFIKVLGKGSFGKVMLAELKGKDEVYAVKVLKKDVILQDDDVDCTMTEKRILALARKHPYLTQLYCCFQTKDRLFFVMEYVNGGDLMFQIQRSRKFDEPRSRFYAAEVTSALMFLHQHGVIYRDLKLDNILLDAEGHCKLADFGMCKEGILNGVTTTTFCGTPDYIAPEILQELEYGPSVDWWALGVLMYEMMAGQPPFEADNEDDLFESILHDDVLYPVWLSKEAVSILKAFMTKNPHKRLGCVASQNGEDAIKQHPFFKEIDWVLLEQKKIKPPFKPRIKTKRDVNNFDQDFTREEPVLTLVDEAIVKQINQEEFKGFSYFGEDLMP

[8] = molecular target: T1, PKCα; details: cited from earlier work

Row | Compound | IC50 [1] | Fold selectivity (IC50), PKC γ [2] | Fold selectivity (IC50), PKC δ [3] | Fold selectivity (IC50), PKC η [4] | Fold selectivity (IC50), PKC ζ [5] | Fold selectivity (IC50), PKC β1 [6] | Fold selectivity (IC50), PKC β1 ([6]; listed as rottlerin) | Fold selectivity (IC50), PKC ε [7] | Fold selectivity (IC50), PKC α [8]
1 | CC(=O)N[C@@H](C)C(=O)N[C@@H](CCCNC(=N)N)C(=O)N[C@@H](CCCNC(=N)N)C(=O)NCC(=O)N[C@@H](CNC(=O)c1ccc(-n2cccc2)cc1)C(=O)N[C@@H](CC(C)C)C(=O)N[C@@H](CCCNC(=N)N)C(=O)N[C@@H](CCC(N)=O)C(=O)N[C@@H](C)C(=O)NCCS [Compound 2] (Ac-ARRG[Dap](Benzoyl(4-(pyrrol-1-yl)))LRQA-Cysteamide) | 5.7 ± 0.4 µM |  |  |  |  |  |  |  | 
2 | CC(=O)c1c(O)c(C)c(O)c(Cc2c(O)c3c(c(C(=O)/C=C/c4ccccc4)c2O)OC(C)(C)C=C3)c1O [Rottlerin, rottlerin] |  | 13 fold | 1 fold | 27 fold | 33 fold | 14 fold | 10 fold | 33 fold | 10 fold
